One may read the MIC as the lowest concentration that inhibits growth of the organism.

Data set [1] concerns Golgi morphology of C. neoformans. Put plainly: C6-NBD-ceramide staining of the Golgi. Particulars: 4 μg/ml. Format: cell-based, Cryptococcus neoformans. The procedure: The Golgi apparatus of C. neoformans and C. albicans was stained with C6-NBD-ceramide using a previously described protocol (Kmetzsch, L. et al. 2011), based on the property that this fluorescent lipid accumulates at the Golgi of either living or fixed cells (Pagano R. E. et al. 1989). […] Cell suspensions were then washed with the same buffer and incubated with C6-NBD-ceramide ([…]) for 16 h at 4° C. The cells were then incubated with bovine serum albumin (BSA, 1%) at 4° C. for 1 h to remove the excess of C6-NBD-ceramide. […] Louis, USA) for 30 min at room temperature. The cells were washed again with PBS and stained cell suspensions were mounted over glass slides as described above and analyzed under an Axioplan 2 (Zeiss, Germany).

In data set [2] the target is Gcs1 (Cryptococcus neoformans, UniProt J9W453). The experiment in a line: In vitro Gcs1 activity in cell lysate.
The subject of data set [3] is A549 cell line. The experiment in a line: In vitro toxicity. Format: cell-based.
Data set [4] deals with Aspergillus fumigatus. The experiment in a line: In vitro susceptibility testing (MIC). Format: cell-based.
Data set [5] concerns Candida albicans SC-5314. The experiment in a line: Animal studies for candidiasis (intravenous infection). Format: in vivo, mice. The method, then:
For survival studies, 8-week old CBA/J female mice (Jackson Laboratory) were used. Eight mice per treatment or control group were used. Mice were infected by intravenous inoculation of 100 μL containing 1×10^5 cells of Candida albicans SC-5314 strain. […] Untreated mice, received 100 μL of PBS/0.4% DMSO. Mice were feed ad-libitum and monitored closely for sign of discomfort. At the end of the survival study, tissue burden culture was performed in mice that survived the infection. Mice were sacrificed and their organs were extracted and homogenized in 10 ml sterile PBS using homogenizer. Organ homogenates were diluted 10 times in PBS, and 100 μL was plated on YPD agar plates and incubated at 30° C. for 72 hours for CFU count.

In brackets after ≈: the same amount, converted by molar mass.

Sequence of Gcs1 (J9W453 whole entry): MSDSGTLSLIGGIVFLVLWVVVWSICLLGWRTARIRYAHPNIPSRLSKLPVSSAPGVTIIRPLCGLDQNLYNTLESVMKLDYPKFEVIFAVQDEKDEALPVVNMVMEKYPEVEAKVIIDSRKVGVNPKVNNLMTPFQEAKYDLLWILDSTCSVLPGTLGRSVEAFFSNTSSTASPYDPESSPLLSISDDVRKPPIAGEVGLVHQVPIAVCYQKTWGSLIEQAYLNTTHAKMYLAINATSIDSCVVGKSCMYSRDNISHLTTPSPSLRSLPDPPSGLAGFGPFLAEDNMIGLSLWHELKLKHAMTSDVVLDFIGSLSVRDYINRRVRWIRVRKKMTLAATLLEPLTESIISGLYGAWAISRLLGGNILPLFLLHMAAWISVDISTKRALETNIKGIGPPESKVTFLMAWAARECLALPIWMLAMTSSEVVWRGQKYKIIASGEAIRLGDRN

Turning to `Cc1ccccc1C(=O)NN=Cc1ccc(O)c(Br)c1` [BHBM, N′-(3-bromo-4-hydroxybenzylidene)-2-methylbenzohydrazide], the Golgi morphology result in data set [1] is reported as “significant alterations in the Golgi morphology”. In data set [2], the “in vitro activity of Gcs1” value is reported as “does not inhibit”. In addition, the toxicity entry in data set [3] is recorded as “slight to moderate toxicity”. For the same compound, the MIC range was 8 µg/mL (≈ 24 µM) in data set [4] (1 MDP Lab strain) and greater than 16 µg/mL in data set [4] (3 Fungus Testing Lab strains). For the same compound, in data set [4] (Aspergillus fumigatus, read-out: MIC (moderately active)), the MIC is 8 to 16 µg/mL (≈ 24 to 48 µM). Further, the mice alive in data set [5] (1.2 mg/kg/day intraperitoneally, after 21 days of infection) turned out to be 62.5%. For the same compound, the “clearance of infection (tissue burden)” value in data set [5] (day 21, surviving treated mice) is “able to clear C. albicans infection”.

The values above are taken from patent publication US11390580B2, “Anti-fungals targeting the synthesis of fungal shingolipids” (THE RESEARCH FOUNDATION FOR THE STATE UNIVERSITY OF NEW YORK, priority 2014, dated 2022).
